Measurements: publication PMC9030254, “Target Hopping from Protein Kinases to PXR: Identification of Small-Molecule Protein Kinase Inhibitors as Selective Modulators of Pregnane X Receptor from TüKIC Library” (Cells, 2022)

How the values were obtained:
Experiment in all cases: Kinase profiling
Type in all cases: biochemical
[1] = biological target: T1, DYRK1A (Homo sapiens, UniProt Q13627)
T1 construct: purchased ProQinase (Freiburg, Germany)
Procedure: (§1) The analysis was performed by ProQinase (Freiburg, Germany).

[2] = biological target: T2, MEKK3 (Homo sapiens, UniProt Q99759)
T2 construct: purchased ProQinase (Freiburg, Germany)
T2 sequence (Q99759 1-626): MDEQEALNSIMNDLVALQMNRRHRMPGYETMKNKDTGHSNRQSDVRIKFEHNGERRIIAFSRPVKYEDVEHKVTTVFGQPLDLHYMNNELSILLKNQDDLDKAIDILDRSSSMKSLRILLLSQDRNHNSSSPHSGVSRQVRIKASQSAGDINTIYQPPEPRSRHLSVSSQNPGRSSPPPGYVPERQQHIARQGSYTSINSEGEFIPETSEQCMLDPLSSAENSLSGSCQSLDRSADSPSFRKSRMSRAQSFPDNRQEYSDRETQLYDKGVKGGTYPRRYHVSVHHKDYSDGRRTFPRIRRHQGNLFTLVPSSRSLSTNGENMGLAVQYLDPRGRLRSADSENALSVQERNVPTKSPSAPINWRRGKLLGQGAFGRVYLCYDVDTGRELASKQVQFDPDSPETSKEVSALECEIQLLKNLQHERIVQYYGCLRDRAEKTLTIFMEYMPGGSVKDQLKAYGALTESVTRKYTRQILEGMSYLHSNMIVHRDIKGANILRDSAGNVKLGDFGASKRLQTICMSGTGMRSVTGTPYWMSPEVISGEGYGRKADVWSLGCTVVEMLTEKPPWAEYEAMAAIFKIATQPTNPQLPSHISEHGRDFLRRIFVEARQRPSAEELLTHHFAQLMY
Procedure: as §1

[3] = biological target: T3, LIMK2 (Homo sapiens, UniProt P53671)
T3 construct: purchased ProQinase (Freiburg, Germany)
T3 sequence (P53671 whole entry): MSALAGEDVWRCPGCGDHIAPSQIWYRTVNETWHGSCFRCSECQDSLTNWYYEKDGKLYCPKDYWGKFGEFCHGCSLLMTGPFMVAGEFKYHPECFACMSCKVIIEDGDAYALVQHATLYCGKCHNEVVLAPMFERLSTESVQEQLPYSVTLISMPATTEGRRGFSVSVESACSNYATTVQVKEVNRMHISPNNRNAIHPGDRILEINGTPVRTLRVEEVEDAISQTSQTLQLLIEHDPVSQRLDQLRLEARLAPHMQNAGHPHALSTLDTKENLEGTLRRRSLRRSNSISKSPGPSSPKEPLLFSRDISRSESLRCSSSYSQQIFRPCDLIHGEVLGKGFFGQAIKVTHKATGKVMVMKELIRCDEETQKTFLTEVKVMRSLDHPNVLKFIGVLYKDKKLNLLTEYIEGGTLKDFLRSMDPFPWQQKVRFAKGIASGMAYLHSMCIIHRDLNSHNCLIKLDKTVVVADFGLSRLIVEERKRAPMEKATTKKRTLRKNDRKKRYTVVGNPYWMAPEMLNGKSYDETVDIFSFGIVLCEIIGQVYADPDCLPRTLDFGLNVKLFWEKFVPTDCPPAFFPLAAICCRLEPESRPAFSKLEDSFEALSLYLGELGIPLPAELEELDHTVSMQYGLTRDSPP
Procedure: as §1

[4] = biological target: T4, GRK6 (Homo sapiens, UniProt P43250)
T4 construct: purchased ProQinase (Freiburg, Germany)
T4 sequence (P43250 whole entry): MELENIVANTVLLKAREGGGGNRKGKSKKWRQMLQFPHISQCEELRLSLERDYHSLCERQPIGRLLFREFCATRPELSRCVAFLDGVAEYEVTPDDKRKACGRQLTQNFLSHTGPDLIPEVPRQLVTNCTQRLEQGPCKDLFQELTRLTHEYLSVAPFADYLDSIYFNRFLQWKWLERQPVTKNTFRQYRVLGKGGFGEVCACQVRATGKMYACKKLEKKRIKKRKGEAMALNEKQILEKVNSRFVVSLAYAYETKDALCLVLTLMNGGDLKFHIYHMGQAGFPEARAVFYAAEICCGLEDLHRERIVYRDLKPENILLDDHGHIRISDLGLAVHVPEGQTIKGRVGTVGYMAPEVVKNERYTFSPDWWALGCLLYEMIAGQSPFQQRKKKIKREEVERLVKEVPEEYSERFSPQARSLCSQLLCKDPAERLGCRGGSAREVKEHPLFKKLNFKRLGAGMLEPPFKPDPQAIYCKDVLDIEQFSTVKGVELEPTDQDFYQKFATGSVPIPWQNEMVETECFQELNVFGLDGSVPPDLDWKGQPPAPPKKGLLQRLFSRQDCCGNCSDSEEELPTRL
Procedure: as §1

[5] = biological target: T5, CSF1R (Homo sapiens, UniProt P07333)
T5 construct: purchased ProQinase (Freiburg, Germany)
T5 sequence (P07333 20-972): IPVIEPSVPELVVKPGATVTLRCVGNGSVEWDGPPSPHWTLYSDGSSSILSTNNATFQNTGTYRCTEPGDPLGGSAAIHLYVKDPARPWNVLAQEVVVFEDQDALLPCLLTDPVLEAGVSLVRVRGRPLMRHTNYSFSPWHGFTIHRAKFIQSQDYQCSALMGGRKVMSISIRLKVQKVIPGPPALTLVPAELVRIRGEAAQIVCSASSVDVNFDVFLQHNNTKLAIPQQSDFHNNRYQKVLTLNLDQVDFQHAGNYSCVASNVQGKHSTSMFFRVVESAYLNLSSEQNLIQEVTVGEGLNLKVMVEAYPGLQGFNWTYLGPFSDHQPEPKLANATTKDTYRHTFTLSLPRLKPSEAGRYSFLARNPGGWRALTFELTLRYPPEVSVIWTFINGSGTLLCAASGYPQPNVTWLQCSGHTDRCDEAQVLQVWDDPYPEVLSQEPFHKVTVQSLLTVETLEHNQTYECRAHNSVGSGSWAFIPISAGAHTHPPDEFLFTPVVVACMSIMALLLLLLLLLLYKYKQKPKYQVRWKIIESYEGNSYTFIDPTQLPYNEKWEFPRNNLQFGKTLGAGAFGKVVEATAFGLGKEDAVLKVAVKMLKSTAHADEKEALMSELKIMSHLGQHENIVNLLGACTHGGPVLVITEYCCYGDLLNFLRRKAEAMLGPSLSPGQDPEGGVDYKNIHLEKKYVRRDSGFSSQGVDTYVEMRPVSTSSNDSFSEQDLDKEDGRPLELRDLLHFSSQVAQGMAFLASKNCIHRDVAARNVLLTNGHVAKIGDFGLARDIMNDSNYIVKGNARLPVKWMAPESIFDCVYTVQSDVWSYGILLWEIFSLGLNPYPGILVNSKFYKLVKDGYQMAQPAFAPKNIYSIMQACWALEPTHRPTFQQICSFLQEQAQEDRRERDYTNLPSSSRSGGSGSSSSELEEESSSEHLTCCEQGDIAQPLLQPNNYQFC
Procedure: as §1

[6] = biological target: T6, ERK1 (Homo sapiens, UniProt P27361)
T6 construct: purchased ProQinase (Freiburg, Germany)
Procedure: as §1

[7] = biological target: T7, DNAPK (Homo sapiens, UniProt P78527)
T7 construct: purchased ProQinase (Freiburg, Germany)
Procedure: as §1

[8] = biological target: T8, EIF2AK2 (Homo sapiens, UniProt P19525)
T8 construct: purchased ProQinase (Freiburg, Germany)
T8 sequence (P19525 whole entry): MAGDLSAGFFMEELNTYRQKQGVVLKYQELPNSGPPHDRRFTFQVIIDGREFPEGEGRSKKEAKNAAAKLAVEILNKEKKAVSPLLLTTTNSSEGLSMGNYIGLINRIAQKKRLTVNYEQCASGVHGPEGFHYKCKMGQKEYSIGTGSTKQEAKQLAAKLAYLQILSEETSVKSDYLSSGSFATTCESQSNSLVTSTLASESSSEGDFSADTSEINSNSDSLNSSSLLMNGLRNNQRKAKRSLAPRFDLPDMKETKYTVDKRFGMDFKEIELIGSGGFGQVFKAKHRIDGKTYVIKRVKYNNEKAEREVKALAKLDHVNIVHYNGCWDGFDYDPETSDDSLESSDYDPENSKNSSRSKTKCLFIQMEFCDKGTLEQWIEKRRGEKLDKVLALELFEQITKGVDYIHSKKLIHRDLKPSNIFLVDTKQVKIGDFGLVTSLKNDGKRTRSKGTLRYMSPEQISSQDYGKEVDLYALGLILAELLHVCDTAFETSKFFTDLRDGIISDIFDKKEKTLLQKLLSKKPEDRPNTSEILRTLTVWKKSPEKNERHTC
Procedure: as §1

[9] = biological target: T9, TLK1 (Homo sapiens, UniProt Q9UKI8)
T9 construct: purchased ProQinase (Freiburg, Germany)
T9 sequence (Q9UKI8 1-766): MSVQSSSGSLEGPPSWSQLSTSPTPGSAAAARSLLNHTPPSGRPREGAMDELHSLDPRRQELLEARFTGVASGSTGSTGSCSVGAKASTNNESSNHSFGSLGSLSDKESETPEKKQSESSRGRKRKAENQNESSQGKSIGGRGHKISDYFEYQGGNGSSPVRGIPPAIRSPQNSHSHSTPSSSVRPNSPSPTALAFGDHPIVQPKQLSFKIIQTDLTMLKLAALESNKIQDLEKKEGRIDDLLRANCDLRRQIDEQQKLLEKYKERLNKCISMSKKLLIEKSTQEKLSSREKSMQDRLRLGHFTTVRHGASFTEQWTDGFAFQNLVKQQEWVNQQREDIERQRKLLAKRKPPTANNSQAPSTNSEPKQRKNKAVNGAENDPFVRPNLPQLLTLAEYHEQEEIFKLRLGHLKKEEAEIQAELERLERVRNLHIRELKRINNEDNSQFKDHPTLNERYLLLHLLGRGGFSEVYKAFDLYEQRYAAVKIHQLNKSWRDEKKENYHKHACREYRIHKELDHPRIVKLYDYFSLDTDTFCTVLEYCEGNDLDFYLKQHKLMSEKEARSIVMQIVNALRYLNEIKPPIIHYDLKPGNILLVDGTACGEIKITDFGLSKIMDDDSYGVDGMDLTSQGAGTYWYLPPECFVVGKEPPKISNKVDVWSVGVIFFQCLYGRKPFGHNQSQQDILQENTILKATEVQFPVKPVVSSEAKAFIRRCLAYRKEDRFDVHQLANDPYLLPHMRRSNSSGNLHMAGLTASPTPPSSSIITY
Procedure: as §1

[10] = biological target: T10, ACVR2B (Homo sapiens, UniProt Q13705)
T10 construct: purchased ProQinase (Freiburg, Germany)
T10 sequence (Q13705 19-512): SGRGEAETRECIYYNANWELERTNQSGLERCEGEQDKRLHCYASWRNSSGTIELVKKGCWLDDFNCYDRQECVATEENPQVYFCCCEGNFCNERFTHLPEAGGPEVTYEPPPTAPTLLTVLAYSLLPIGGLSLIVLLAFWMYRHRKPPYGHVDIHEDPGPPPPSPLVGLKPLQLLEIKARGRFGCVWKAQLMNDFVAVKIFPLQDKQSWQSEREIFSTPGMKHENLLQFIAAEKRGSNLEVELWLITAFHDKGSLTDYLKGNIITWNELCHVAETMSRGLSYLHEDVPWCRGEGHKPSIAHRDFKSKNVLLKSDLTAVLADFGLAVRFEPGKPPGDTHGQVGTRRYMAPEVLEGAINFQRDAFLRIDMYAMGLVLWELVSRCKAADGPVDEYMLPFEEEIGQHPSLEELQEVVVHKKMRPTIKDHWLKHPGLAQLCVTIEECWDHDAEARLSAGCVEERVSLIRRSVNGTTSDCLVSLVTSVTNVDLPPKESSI
Procedure: as §1

[11] = biological target: T11, AMPKalpha1 (Homo sapiens, UniProt Q13131)
T11 construct: purchased ProQinase (Freiburg, Germany)
T11 sequence (Q13131 10-559 limits assumed): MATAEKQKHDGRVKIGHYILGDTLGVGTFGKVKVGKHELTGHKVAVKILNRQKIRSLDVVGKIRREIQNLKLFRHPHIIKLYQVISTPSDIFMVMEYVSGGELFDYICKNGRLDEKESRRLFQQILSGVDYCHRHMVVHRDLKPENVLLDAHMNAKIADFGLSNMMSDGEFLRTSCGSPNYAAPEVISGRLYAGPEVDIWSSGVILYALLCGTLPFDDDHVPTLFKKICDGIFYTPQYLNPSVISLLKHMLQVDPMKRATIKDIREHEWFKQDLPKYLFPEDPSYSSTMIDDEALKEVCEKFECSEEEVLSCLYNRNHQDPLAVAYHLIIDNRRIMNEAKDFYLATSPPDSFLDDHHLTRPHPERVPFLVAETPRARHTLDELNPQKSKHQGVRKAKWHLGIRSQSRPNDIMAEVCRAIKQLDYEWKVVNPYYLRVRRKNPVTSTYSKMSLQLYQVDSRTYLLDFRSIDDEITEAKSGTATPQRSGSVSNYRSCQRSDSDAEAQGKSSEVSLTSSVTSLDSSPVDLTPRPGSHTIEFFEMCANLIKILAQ
Procedure: as §1

[12] = biological target: T12, CLK4 (Homo sapiens, UniProt Q9HAZ1)
T12 construct: purchased ProQinase (Freiburg, Germany)
T12 sequence (Q9HAZ1 whole entry): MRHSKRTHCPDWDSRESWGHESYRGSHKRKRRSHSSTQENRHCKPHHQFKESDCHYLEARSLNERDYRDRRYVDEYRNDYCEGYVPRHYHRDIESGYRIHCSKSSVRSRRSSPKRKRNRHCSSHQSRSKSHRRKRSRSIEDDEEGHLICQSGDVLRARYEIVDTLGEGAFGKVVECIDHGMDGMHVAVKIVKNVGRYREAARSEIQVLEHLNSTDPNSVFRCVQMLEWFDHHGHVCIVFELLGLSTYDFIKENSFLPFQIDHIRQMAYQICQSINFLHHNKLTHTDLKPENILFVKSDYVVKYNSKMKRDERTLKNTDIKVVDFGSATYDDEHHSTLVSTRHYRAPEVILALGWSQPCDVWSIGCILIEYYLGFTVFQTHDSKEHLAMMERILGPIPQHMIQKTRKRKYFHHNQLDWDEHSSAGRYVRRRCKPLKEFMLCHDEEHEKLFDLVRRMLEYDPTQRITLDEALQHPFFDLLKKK
Procedure: as §1

[13] = biological target: T13, STK23 (Homo sapiens, UniProt Q9UPE1)
T13 construct: purchased ProQinase (Freiburg, Germany)
T13 sequence (Q9UPE1 whole entry): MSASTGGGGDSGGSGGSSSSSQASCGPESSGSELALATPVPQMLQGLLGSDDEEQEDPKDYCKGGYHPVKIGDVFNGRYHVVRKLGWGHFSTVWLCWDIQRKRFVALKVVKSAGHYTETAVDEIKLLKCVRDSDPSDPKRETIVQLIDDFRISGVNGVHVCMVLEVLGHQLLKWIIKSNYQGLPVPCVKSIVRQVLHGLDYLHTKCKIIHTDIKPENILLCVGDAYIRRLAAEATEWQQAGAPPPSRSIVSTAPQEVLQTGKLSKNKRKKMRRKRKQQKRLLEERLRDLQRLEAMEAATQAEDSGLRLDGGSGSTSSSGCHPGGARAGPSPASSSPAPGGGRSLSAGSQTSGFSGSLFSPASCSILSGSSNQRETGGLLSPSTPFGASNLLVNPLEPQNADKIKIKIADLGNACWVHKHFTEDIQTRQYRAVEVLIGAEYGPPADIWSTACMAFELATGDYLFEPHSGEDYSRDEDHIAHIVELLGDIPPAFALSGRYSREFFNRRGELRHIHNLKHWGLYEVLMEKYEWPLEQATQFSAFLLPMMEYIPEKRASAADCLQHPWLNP
Procedure: as §1

SMILES | Residual activity ([1]; 1.0E-05 M) | Residual activity ([1]; 1.0E-06 M) | Residual activity ([2]; 1.0E-05 M) | Residual activity ([2]; 1.0E-06 M) | Residual activity ([3]; 1.0E-05 M) | Residual activity ([3]; 1.0E-06 M) | Residual activity ([4]; 1.0E-05 M) | Residual activity ([4]; 1.0E-06 M) | Residual activity ([5]; 1.0E-05 M) | Residual activity ([5]; 1.0E-06 M) | Residual activity ([6]; 1.0E-05 M) | Residual activity ([6]; 1.0E-06 M) | Residual activity ([7]; 1.0E-05 M) | Residual activity ([7]; 1.0E-06 M) | Residual activity ([8]; 1.0E-05 M) | Residual activity ([8]; 1.0E-06 M) | Residual activity ([9]; 1.0E-05 M) | Residual activity ([9]; 1.0E-06 M) | Residual activity ([10]; 1.0E-05 M) | Residual activity ([10]; 1.0E-06 M) | also measured
O=C(Nc1ccc(F)c(Nc2ccc3c(c2)CCCCC3=O)c1)c1cccc(F)c1 [Compound 109] | 92 % of control | 92 % of control | 102 % of control | 94 % of control | 93 % of control | 98 % of control | 121 % of control | 113 % of control | 94 % of control | 103 % of control | 102 % of control | 100 % of control | 106 % of control | 96 % of control | 114 % of control | 94 % of control | 114 % of control | 103 % of control | 167 % of control | 104 % of control | Residual activity ([11]; 1.0E-05 M): 98 % of control; Residual activity ([11]; 1.0E-06 M): 99 % of control; Residual activity ([12]; 1.0E-05 M): 108 % of control; Residual activity ([12]; 1.0E-06 M): 105 % of control; Residual activity ([13]; 1.0E-05 M): 76 % of control; Residual activity ([13]; 1.0E-06 M): 78 % of control
O=C(Cc1ccccc1)Nc1ccc(F)c(Nc2ccc3c(c2)CCCCC3=O)c1 [Compound 100] | 98 % of control | 92 % of control | 104 % of control | 95 % of control | 82 % of control | 95 % of control | 114 % of control | 117 % of control | 96 % of control | 100 % of control | 99 % of control | 99 % of control | 97 % of control | 95 % of control | 113 % of control | 97 % of control | 131 % of control | 125 % of control | 169 % of control | 95 % of control | Residual activity ([11]; 1.0E-05 M): 101 % of control; Residual activity ([11]; 1.0E-06 M): 112 % of control; Residual activity ([12]; 1.0E-05 M): 98 % of control; Residual activity ([12]; 1.0E-06 M): 103 % of control; Residual activity ([13]; 1.0E-05 M): 79 % of control; Residual activity ([13]; 1.0E-06 M): 89 % of control
